{"source": "PubChem BioAssay AID1963873", "about": "(Molecular Pharmacology Branch, DTP, NCI, 2024);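 note: cells exposed to agents for seven days before viability read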;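 for viability, T/C: 100% = DMSO vehicle control wells and lower values mean fewer viable cells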", "system": "276233-004-R-J1-PDC KRAS spheroids with HUVEC/MSC, viability", "assay": "Anticancer human tumor 276233-004-R-J1-PDC patient-derived colon adenocarcinoma cell line growth inhibition [KRAS2]", "conditions": "for IC50: curve of first compound; for viability, T/C: stronger effect = lower value", "method_in_brief": "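Combination screen of spheroid viability in tumor-cell co-cultures with endothelial (HUVEC) and mesenchymal stem cell stroma. Each agent was tested in half-log dilutions, topping at clinical Cmax or at 10 microM without a known Cmax.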"}
{"smiles": "CC(=O)Nc1cccc(-n2c(=O)n(C3CC3)c(=O)c3c(Nc4ccc(I)cc4F)n(C)c(=O)c(C)c32)c1", "note": "+ COc1cc2nc(C)nc(NC(C)c3cc(N)cc(C(F)(F)F)c3)c2cc1OC1CCOC1", "values": [{"measurement": "IC50", "setting": "second compound 0.1 µM", "value": 5.58, "unit": "nM"}, {"measurement": "IC50", "setting": "second compound 0.316 µM", "value": 4.05, "unit": "nM"}, {"measurement": "IC50", "setting": "second compound 1 µM", "value": 2.77, "unit": "nM"}, {"measurement": "IC50", "setting": "second compound 3.16 µM", "value": 1.8, "unit": "nM"}, {"measurement": "IC50", "setting": "second compound 10 µM", "value": "< 0.1", "unit": "nM"}, {"measurement": "viability, T/C", "setting": "second compound 0.1 µM, first compound 0.0001 µM", "value": 86, "unit": "%"}, {"measurement": "viability, T/C", "setting": "second compound 0.1 µM, first compound 0.000316 µM", "value": 88.2, "unit": "%"}, {"measurement": "viability, T/C", "setting": "second compound 0.1 µM, first compound 0.001 µM", "value": 75.2, "unit": "%"}, {"measurement": "viability, T/C", "setting": "second compound 0.1 µM, first compound 0.00316 µM", "value": 63, "unit": "%"}, {"measurement": "viability, T/C", "setting": "second compound 0.1 µM, first compound 0.01 µM", "value": 37.4, "unit": "%"}, {"measurement": "viability, T/C", "setting": "second compound 0.1 µM, first compound 0.0316 µM", "value": 17, "unit": "%"}, {"measurement": "viability, T/C", "setting": "second compound 0.316 µM, first compound 0.0001 µM", "value": 88.8, "unit": "%"}, {"measurement": "viability, T/C", "setting": "second compound 0.316 µM, first compound 0.000316 µM", "value": 79.2, "unit": "%"}, {"measurement": "viability, T/C", "setting": "second compound 0.316 µM, first compound 0.001 µM", "value": 65.1, "unit": "%"}, {"measurement": "viability, T/C", "setting": "second compound 0.316 µM, first compound 0.00316 µM", "value": 54.3, "unit": "%"}, {"measurement": "viability, T/C", "setting": "second compound 0.316 µM, first compound 0.01 µM", "value": 38.4, "unit": "%"}, {"measurement": "viability, T/C", "setting": "second compound 0.316 µM, first compound 0.0316 µM", "value": 23, "unit": "%"}, {"measurement": "viability, T/C", "setting": "second compound 1 µM, first compound 0.0001 µM", "value": 95.2, "unit": "%"}, {"measurement": "viability, T/C", "setting": "second compound 1 µM, first compound 0.000316 µM", "value": 72.6, "unit": "%"}, {"measurement": "viability, T/C", "setting": "second compound 1 µM, first compound 0.001 µM", "value": 69.7, "unit": "%"}, {"measurement": "viability, T/C", "setting": "second compound 1 µM, first compound 0.00316 µM", "value": 44.7, "unit": "%"}, {"measurement": "viability, T/C", "setting": "second compound 1 µM, first compound 0.01 µM", "value": 34.3, "unit": "%"}, {"measurement": "viability, T/C", "setting": "second compound 1 µM, first compound 0.0316 µM", "value": 12.3, "unit": "%"}, {"measurement": "viability, T/C", "setting": "second compound 3.16 µM, first compound 0.0001 µM", "value": 80.2, "unit": "%"}, {"measurement": "viability, T/C", "setting": "second compound 3.16 µM, first compound 0.000316 µM", "value": 76.4, "unit": "%"}, {"measurement": "viability, T/C", "setting": "second compound 3.16 µM, first compound 0.001 µM", "value": 59.4, "unit": "%"}, {"measurement": "viability, T/C", "setting": "second compound 3.16 µM, first compound 0.00316 µM", "value": 39.7, "unit": "%"}, {"measurement": "viability, T/C", "setting": "second compound 3.16 µM, first compound 0.01 µM", "value": 21.6, "unit": "%"}, {"measurement": "viability, T/C", "setting": "second compound 3.16 µM, first compound 0.0316 µM", "value": 8.22, "unit": "%"}, {"measurement": "viability, T/C", "setting": "second compound 10 µM, first compound 0.0001 µM", "value": 26.6, "unit": "%"}, {"measurement": "viability, T/C", "setting": "second compound 10 µM, first compound 0.000316 µM", "value": 21.4, "unit": "%"}, {"measurement": "viability, T/C", "setting": "second compound 10 µM, first compound 0.001 µM", "value": 21.7, "unit": "%"}, {"measurement": "viability, T/C", "setting": "second compound 10 µM, first compound 0.00316 µM", "value": 14, "unit": "%"}, {"measurement": "viability, T/C", "setting": "second compound 10 µM, first compound 0.01 µM", "value": 15.2, "unit": "%"}, {"measurement": "viability, T/C", "setting": "second compound 10 µM, first compound 0.0316 µM", "value": 6.73, "unit": "%"}]}
